# From patent US12064445B2, “Cytarabine conjugates for cancer therapy” (Biosight Ltd., priority 2015, dated 2024)
# pIC50: −log10 of the molar value.
# Key:
# [1] = system: CCRF-SB (Human acute lymphoblastic leukemia); test: MTT assay, IC50 in tumor cell lines; assay type: cell-based; conditions: 72 hr
# Method: (§1) The effect of Astarabine® on different cell lines was evaluated. Briefly, various cell lines were obtained from ATCC or ECACC. Hematological cells were grown in RPMI medium containing 10-20% FBS and 1% glutamine. Solid tumor cells were grown in DMEM medium containing 10-20% FBS and 1% glutamine. Cells were seeded into 96-well plates, 50,000 cells/ml, 0.2 ml per well. Test substances were diluted in saline or PBS and added in final concentrations of 0.1 nM to 10 μM, in a volume of 20 μl. The study was conducted in triplicates, PBS was used as control. Plates were incubated for 72 hr at 37° C., 5% CO2. At the end of the exposure period, a MTT assay using the MTT reagent [3-(4,5-dimethylthiazol-2-yl)-2,5-diphenyltetrazolium bromide] was performed. MTT was added to each well at a concentration of 5 mg/ml in a volume of 0.02 ml. Plates were incubated at 37° C. for 3 h. The plates were centrifuged at 3500 rpm for 5 minutes and the supernatant was aspired. The pellets which contained MTT crystals were each dissolved in 0.2 ml DMSO. Absorbance was determined using ELISA reader at a wavelength of 570 nm.
# [2] = system: CCRF-CEM (Human acute lymphoblastic leukemia T lympoblastoid line); test: MTT assay, IC50 in tumor cell lines; assay type: cell-based; conditions: 72 hr
# Method: as §1
# [3] = system: MEG 01 (Human chronic myelogenous leukemia); test: MTT assay, IC50 in tumor cell lines; assay type: cell-based; conditions: MEG 01, 72 hr
# Method: as §1
# [4] = system: RS 4:11 (Human acute lymphoblastic leukemia); test: MTT assay, IC50 in tumor cell lines; assay type: cell-based; conditions: RS4-11, RS 4:11, 72 hr
# Method: as §1
# [5] = system: SU DHL-5 (Human B-cell non Hodgkin's lymphoma); test: MTT assay, IC50 in tumor cell lines; assay type: cell-based; conditions: SU DHL-5, 72 hr
# Method: as §1
# [6] = system: HepG2 (Human hepatocellular carcinoma); test: MTT assay, IC50 in tumor cell lines; assay type: cell-based; conditions: HepG2, 72 hr
# Method: as §1
# RPMI8226 (Human myeloma) = test: MTT assay, IC50 in tumor cell lines; assay type: cell-based; conditions: RPMI-8226, RPMI8226, 72 hr
# Method: as §1, with “Test substances were diluted in saline or PBS and added in final concentrations of 0.1 nM to 10 μM, in a volume of 20 μl.” left out
# Molt-4 cells = test: Human leukemia hollow fiber model transplanted in nude mice (Molt-4); assay type: in vivo; conditions: 7 consecutive days
# Method: Next, the efficacy of Astarabine® in vivo was studied on a human leukemia (Molt-4 and CCRF-CEM cells) hollow fiber model transplanted in nude mice. Astarabine® was injected at doses of 6.25 mg/mouse/day and 25 mg/mouse/day intraperitoneally (IP), daily, for 7 consecutive days; cytarabine was injected at a dose of 1.5 mg/mouse/day. Leukemia cell growth was measured using the MTT assay as described in Example 1 herein above.
# AML and ALL patients = test: Phase I/IIa open-label clinical study in AML and ALL patients; assay type: in vivo, human
# Method: Phase I/IIa, open-label, uncontrolled, single-center study enrolled patients of 18 or more years of age with relapsed or refractory acute leukemia or those unfit for intensive therapy, as judged by the treating physician. The study was approved by the Rambam IRB (approval #0384-11).
# Patients were enrolled into 4 Astarabine® escalating dose cohorts, each included 3 patients. Treatment was administered as a 1-hour single daily infusion for 6 consecutive days.
# Astarabine® doses for each infusion: • For age ≤50 years: 0.5 g/m^2, 1.5 g/m^2, 3 g/m^2, 4.5 g/m^2 • For age >50 years: 0.3 g/m^2, 0.8 g/m^2, 1.5 g/m^2, 2.3 g/m^2 Results
# [7] = Maximal tolerated dose, single dose IP in mice; assay type: in vivo
# Method: Ten weeks of age IRC mice were injected IP with a single dose of Astarabine®, ranging from 1428 to 8271 mg/kg (50 to 300 mg/mice, respectively). Clinical evaluation included mobility observations, food and water consumption. […] After 7 days, the mice were sampled for hematology and biochemistry and then subjected to necropsy.
# [8] = system: human leukemia cell lines; test: Astarabine metabolite assay in human leukemia cell lines; assay type: cell-based
# [9] = patient 1, Refractory AML, 0.3 gr/m^2/day
# [10] = patient 2, Refractory AML, 0.3 gr/m^2/day
# [11] = patient 3, Refractory AML, 0.5 gr/m^2/day
# [12] = patient 4, Secondary AML, 0.8 gr/m^2/day
# [13] = patient 5, Secondary AML, 0.8 gr/m^2/day
# [14] = patient 6, Refractory AML, 0.8 gr/m^2/day
# [15] = patient 8, Secondary AML, 1.5 gr/m^2/day
# [16] = patient 9, Secondary AML, 1.5 gr/m^2/day
# [17] = patient 10, Relapsed AML, 2.3 gr/m^2/day
compound,measurement,setting,value
N[C@@H](CC(=O)Nc1ccn([C@@H]2O[C@H](CO)[C@@H](O)[C@@H]2O)c(=O)n1)C(=O)O [Astarabine®],pIC50,[1],4.67 to 4.96
same,pIC50,[2],7.39 to 7.63
same,pIC50,[3],5.77
same,pIC50,[4],7.57
same,pIC50,[5],6.71
same,pIC50,[6],5.12 to 5.15
same,pIC50,RPMI8226 (Human myeloma),3.84 to 4.48
same,Inhibition of growth of Molt-4 cells,Molt-4 cells; 6.25 mg/mouse/day IP,76.9%
same,Inhibition of growth of Molt-4 cells,Molt-4 cells; 25 mg/mouse/day IP,82.8%
same,Adverse effects during or post therapy,"AML and ALL patients; 10 patients, 0.3-2.3 g/m^2/day, 1-hour daily infusion for 6 days, apart from neutropenic fever",No significant adverse effects
same,Safety and tolerability,AML and ALL patients; even for patients of 80 or more years of age,safe and very well tolerated
same,Follow-up in months,AML and ALL patients; [9],3 months
same,BM blasts Day 0,"AML and ALL patients; patient 1, Refractory AML, 0.3 gr/m^2/day x 6 days infusion",100%
same,BM blasts Day 14,AML and ALL patients; [9],90%
same,BM blasts Day 30,AML and ALL patients; [9],83%
same,Follow-up in months,AML and ALL patients; [10],2 months
same,BM blasts Day 0,AML and ALL patients; [10],100%
same,BM blasts Day 14,AML and ALL patients; [10],64%
same,BM blasts Day 30,AML and ALL patients; [10],70%
same,Follow-up in months,AML and ALL patients; [11],6 months
same,BM blasts Day 0,AML and ALL patients; [11],90%
same,BM blasts Day 14,AML and ALL patients; [11],37%
same,BM blasts Day 30,AML and ALL patients; [11],60%
same,Follow-up in months,AML and ALL patients; [12],4 months
same,BM blasts Day 14,AML and ALL patients; [12],39%
same,BM blasts Day 30,AML and ALL patients; [12],63%
same,Follow-up in months,AML and ALL patients; [13],9 months
same,BM blasts Day 0,AML and ALL patients; [13],80%
same,BM blasts Day 14,AML and ALL patients; [13],5%
same,BM blasts Day 30,AML and ALL patients; [13],0%
same,Follow-up in months,AML and ALL patients; [14],1 months
same,BM blasts Day 0,AML and ALL patients; [14],85%
same,BM blasts Day 14,AML and ALL patients; [14],100%
same,BM blasts Day 30,AML and ALL patients; [14],100%
same,Follow-up in months,"AML and ALL patients; patient 7, ALL, 1.5 gr/m^2/day",7 months
same,BM blasts Day 0,"AML and ALL patients; patient 7, ALL, 1.5 gr/m^2/day",89%
same,BM blasts Day 14,"AML and ALL patients; patient 7, ALL, 1.5 gr/m^2/day",3%
same,BM blasts Day 30,"AML and ALL patients; patient 7, ALL, 1.5 gr/m^2/day",0.2%
same,Follow-up in months,AML and ALL patients; [15],6 months
same,BM blasts Day 0,AML and ALL patients; [15],63%
same,BM blasts Day 14,AML and ALL patients; [15],80%
same,BM blasts Day 30,AML and ALL patients; [15],8%
same,Follow-up in months,AML and ALL patients; [16],1 months
same,Outcome,AML and ALL patients; [16],Died
same,BM blasts Day 0,AML and ALL patients; [16],100%
same,Follow-up in months,AML and ALL patients; [17],1 months
same,Outcome,AML and ALL patients; [17],Died
same,BM blasts Day 0,AML and ALL patients; [17],100%
same,Remission,"AML and ALL patients; patients having acute leukemia, 0.3-2.3 g/m^2/day for 6 days",three out of ten patients
same,Safety and tolerability,"AML and ALL patients; patients of 75 or more years of age having AML or ALL, daily dose of about 2 g/m^2 or higher",safe and well tolerated
same,MTD at 7 days,"[7]; IRC, mouse, in vivo, single dose IP",8270 mg/kg
same,Blood samples (hematology and biochemistry),"[7]; single IP dose 8271 mg/kg, after 7 days of recovery",normal results
same,"Necropsy, tissues","[7]; single IP dose 1428 to 8271 mg/kg, all mice","normal, with no macroscopic findings"
same,Metabolites detected in cells,[8],detected free cytarabine metabolites
